Common to all, as to assay: NCI-60 cell line screen, 48 h
Experiment [1] concerns T-47D breast.
Experiment [2] concerns NCI/ADR-RES ovarian.
Experiment [3] relates to SF-295 CNS.
Experiment [4] relates to HOP-92 NSCLC.
Experiment [5] deals with OVCAR-8 ovarian.
The subject of experiment [6] is RXF 393 renal.
For experiment [7], the system named is SR leukemia.
Experiment [8] has as its system RPMI-8226 leukemia.
Experiment [9] deals with KM12 colon.
The subject of experiment [10] is SW-620 colon.
Experiment [11] relates to HOP-62 NSCLC.

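How tested: cells in 96-well plates exposed to compound for 48 hours at five concentrations. TGI is the concentration that stops growth completely.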 A value given as a limit tells only on which side of the number the result lay.

Take `NC(=S)NNCC(=O)CC(O)(C(F)(F)F)C(F)(F)Cl` (configuration not stated): the TGI in experiment [1], in [2], in experiment [3], in experiment [4], in [5] and in [6] was more than 100 µM throughout. Also, the TGI in experiment [7], in experiment [8], in experiment [9] and in [10] was more than 100 µM throughout.
With `O=C(C[N+]12CN3CN(CN(C3)C1)C2)c1ccc(-c2ccccc2)cc1`, the TGI is more than 100 µM in experiment [1]; 89.4 µM in experiment [2]; 43.6 µM in experiment [3]; more than 100 µM in [4]; 55.4 µM in experiment [11]; more than 100 µM in experiment [5]. In addition, the TGI in experiment [6] was 37.7 µM; in [7], 12.2 µM; in experiment [9] it was 90.3 µM; in experiment [10], 30 µM.
Take `CN(C(=O)Cc1ccccc1)n1cn[n+](CC(=O)OC(C)(C)C)c1`: the TGI in experiment [1], in experiment [2], in [3], in [4], in experiment [11] and in experiment [5] was more than 10 µM in each case. In addition, the TGI in experiment [7], in experiment [8], in experiment [9] and in experiment [10] was more than 10 µM each time.
Regarding `CC(C)c1cc(=O)[nH]c2cc(N)ccc12`, the TGI in [1], in experiment [2], in experiment [3], in experiment [4], in experiment [11] and in experiment [5] was more than 100 µM each time. In addition, the TGI in experiment [6], in [7], in experiment [8], in experiment [9] and in experiment [10] was more than 100 µM each time.
In the case of `C[N+]1(C)CCCC(C#N)(c2ccccc2)CC1` (configuration not stated), the TGI in experiment [1], in experiment [2], in experiment [3], in experiment [4], in experiment [11] and in experiment [5] was more than 100 µM throughout. In addition, the TGI in experiment [6], in experiment [7], in experiment [8], in experiment [9] and in experiment [10] was more than 100 µM in each case.
With `NC1=Nc2cc(C(F)(F)F)ccc2Sc2nc3ccccc3n21`, the TGI in [1] was more than 100 µM; in experiment [2], more than 100 µM; in experiment [3], more than 100 µM; in experiment [4] it was 80.4 µM; in experiment [11], more than 100 µM; in [5] it was more than 100 µM. In addition, the TGI was more than 100 µM in experiment [6]; more than 25.4 µM in [7]; more than 100 µM in experiment [8]; more than 100 µM in experiment [9]; more than 100 µM in experiment [10].
Consider `CCCOC(=O)c1cc(O)c(O)c(O)c1`, for which the TGI in [1], in experiment [2], in [3], in experiment [4], in experiment [11] and in experiment [5] was more than 100 µM throughout. Further, the TGI in experiment [6], in [7], in experiment [8], in experiment [9] and in experiment [10] was more than 100 µM throughout.
As for `O=C(O)CN1C(=O)c2ccc(NC(=O)C(=O)O)cc2S1(=O)=O`, the TGI in experiment [1], in [2], in experiment [3], in [4], in experiment [11] and in experiment [6] was more than 100 µM in each case. For the same compound, the TGI in experiment [7], in [8], in experiment [9] and in experiment [10] was more than 100 µM in each case.
For the compound `CCOC(=O)N1c2ccccc2C(C)=CC(C)C1C` (configuration not stated), the TGI in experiment [1] was more than 100 µM; in experiment [2] it was more than 100 µM; in experiment [3], 68.3 µM; in experiment [11] it was more than 100 µM; in experiment [5], 44.1 µM; in [6], 51 µM. Also, the TGI was 55.1 µM in [7], more than 100 µM in experiment [8], 83.4 µM in experiment [9] and more than 100 µM in experiment [10].
Take `CC(C)(C)OC(=O)Cn1ncn(NC(=O)Cc2ccccc2)c1=S`: the TGI in experiment [1], in [2], in experiment [3], in [4], in experiment [11] and in [5] was more than 10 µM throughout. The TGI in experiment [7], in experiment [9] and in [10] was more than 10 µM each time.
For `O=C(NNC(=O)c1ccco1)c1ccco1`, the TGI in experiment [1], in [2], in experiment [3], in experiment [11], in [5] and in experiment [6] was more than 100 µM in each case. Further, the TGI in experiment [7], in experiment [8], in experiment [9] and in experiment [10] was more than 100 µM each time.
Consider `Nc1nc(Sc2ccc([N+](=O)[O-])c3nonc23)c2[nH]cnc2n1`, for which the TGI in [1] stood at 4.43 µM; in experiment [2] it was 25.4 µM; in [3], 16.1 µM; in experiment [4], 10.5 µM; in experiment [11] it was 18.1 µM; in experiment [5], 9.7 µM. Besides, the TGI in [6] is 8.32 µM; in [7] it was 1.77 µM; in [8] it was 5.62 µM; in experiment [9], 15.3 µM; in experiment [10], 2.87 µM.
With `CC1(C)N=C(C(N)=O)c2[nH]cnc2N1`, the TGI in experiment [1], in [2], in experiment [3], in experiment [4], in experiment [11] and in [5] was more than 100 µM each time. In addition, the TGI in [6], in experiment [7], in experiment [8], in [9] and in experiment [10] was more than 100 µM each time.
`CO[C@@]12C[C@H](CNC(=O)c3ccc[nH]3)O[C@@H]1NC(=O)N2`: the TGI in experiment [1], in [2], in [3], in experiment [4], in experiment [11] and in experiment [5] was more than 100 µM in each case. The TGI in experiment [7], in experiment [8], in experiment [9] and in experiment [10] was more than 100 µM each time.
Turning to `CN(CCN)[C@H](CSSC[C@@H](c1ccccc1O)N(C)CCN)c1ccccc1O`, the TGI came out at 48.3 µM in experiment [1]; 23.5 µM in experiment [2]; 20.4 µM in experiment [3]; 35.6 µM in experiment [4]; 28.6 µM in [11]; 47.6 µM in [5]. Besides, the TGI in experiment [6] was 43.7 µM; in [7], 11.5 µM; in experiment [8], 43.2 µM; in experiment [9], 28.2 µM; in experiment [10], more than 57.3 µM.
As to `Cc1nc2ccc(NCCN(C)C)c3c(=O)c4ccccc4n1c23`, the TGI in experiment [1] stood at 39.7 µM; in experiment [2], 6.83 µM; in experiment [3], 14.2 µM; in [4], 14.2 µM; in experiment [11], 19.1 µM; in [5] it was 10.1 µM. Besides, the TGI in experiment [6] was determined as 22.9 µM; in experiment [7] it was 10.6 µM; in [8], 26.2 µM; in experiment [9], 13.1 µM; in experiment [10], 9.15 µM.
For the compound `CC(=O)OC1CCn2c1nc1cc([N+](=O)[O-])c(C)cc12` (configuration not stated), the TGI in experiment [1], in [2], in [3], in experiment [4], in [5] and in experiment [6] was more than 100 µM each time. Further, the TGI in experiment [7], in experiment [8], in experiment [9] and in experiment [10] was more than 100 µM throughout.
As for `CCOC(=O)C1=C(O)CC(=O)N=C1N1CCCC1`, the TGI in experiment [1], in experiment [2], in [3], in experiment [4], in [11] and in experiment [5] was more than 100 µM in each case. The TGI in experiment [6], in experiment [7], in experiment [8], in experiment [9] and in experiment [10] was more than 100 µM throughout.
Consider `Nc1cccc(-c2cc(=O)c3cc4c(cc3[nH]2)OCO4)c1`, for which the TGI was more than 100 µM in experiment [1]; 2.95 µM in [2]; more than 26.4 µM in experiment [3]; more than 100 µM in experiment [4]; 29.2 µM in experiment [11]; more than 22.6 µM in experiment [5]. Also, the TGI was more than 100 µM in experiment [6]; more than 100 µM in experiment [7]; more than 100 µM in experiment [8]; more than 21.6 µM in experiment [9]; more than 100 µM in experiment [10].
In the case of `COC(=O)/C=C(C)/C=C\COC1CCCCO1` (configuration not stated), the TGI in experiment [1], in experiment [2], in [3], in experiment [11], in experiment [5] and in [6] was more than 100 µM in each case. Also, the TGI in experiment [7], in experiment [8], in [9] and in experiment [10] was more than 100 µM throughout.
For `Cc1ccc(/C=c2\cc3oc(=O)c4cccc(c4-3)c2=O)cc1`, the TGI in experiment [1], in [2], in experiment [3], in [4], in experiment [11] and in experiment [5] was more than 100 µM throughout. For the same compound, the TGI in experiment [7], in [8] and in experiment [10] was more than 100 µM throughout.
Consider `CCOC(=O)Cc1c(C(=O)OCC)[n+](=O)c2cc(Cl)c(Cl)cc2n1[O-]`, for which the TGI in experiment [1] turned out to be 6.76 µM; in [2] it was 8.61 µM; in [3], 13.5 µM; in [11] it was 4.27 µM; in experiment [5] it was 6.2 µM; in experiment [6] it was 4.91 µM. For the same compound, the TGI in experiment [7] is 2.11 µM; in experiment [8] it was 2.18 µM; in experiment [9], 2.95 µM; in experiment [10], 4.08 µM.
With `c1ccc(C(Oc2noc3ccccc23)c2ccccc2)cc1`, the TGI was 23.1 µM in experiment [1]; more than 100 µM in experiment [2]; more than 100 µM in [3]; more than 100 µM in [4]; more than 100 µM in [11]; more than 100 µM in [5]. Also, the TGI is 35.9 µM in experiment [6], 51.6 µM in experiment [7], more than 100 µM in [9] and more than 100 µM in experiment [10].
Consider `Cc1ccc(C2=CC(=O)/C(=C\C(=O)c3ccc(Br)cc3)O2)c(C)c1`, for which the TGI in experiment [1] was 43.1 µM; in [2], 29.4 µM; in experiment [3], more than 54.2 µM; in experiment [4] it was 19.4 µM; in experiment [11] it was more than 66.7 µM; in [5], 19 µM. Moreover, the TGI in [6] was 14.1 µM; in [7] it was 12.6 µM; in experiment [8], 10 µM; in [9], 48.6 µM.
For the compound `NC(Cc1ccccc1)C(=O)OCN1C(=O)C2C3C=CC(C2C1=O)C1C(=O)N(COC(=O)C(N)Cc2ccccc2)C(=O)C31` (configuration not stated), the TGI in experiment [1], in experiment [2], in experiment [3], in experiment [11], in [5] and in experiment [6] was more than 100 µM throughout. For the same compound, the TGI in experiment [7] is 53.4 µM; in [8] it was 48 µM; in experiment [10], 77.3 µM.
In the case of `COc1ccc(OC)c2c(C(C)=O)cccc12`, the TGI in [1], in experiment [2], in experiment [3], in [11], in experiment [5] and in [6] was more than 100 µM in each case. For the same compound, the TGI in experiment [7], in experiment [8], in experiment [9] and in [10] was more than 100 µM throughout.
Take `S=c1ncc(-c2cncc(-c3cnc(=S)[nH]c3)n2)c[nH]1`: the TGI in [1], in experiment [2], in experiment [3], in experiment [4], in experiment [5] and in [6] was more than 100 µM in each case. Also, the TGI in experiment [7], in experiment [8], in experiment [9] and in experiment [10] was more than 100 µM throughout.

(Values after PubChem BioAssay (NCI).)
